Laboratory results reported in publication PMC7005905, “Identification and characterization of a bacterial core methionine synthase” (Scientific Reports, 2020).

Columns and labels:
tr-MetEEco = biological target: T1, tr-MetEEco (Escherichia coli, UniProt P25665); assay: HPLC and MS of products; type: biochemical; conditions: 2 mM D,L-homocysteine, 150 µM 5-methyl-THF-Glu3, pH 7.2, 100 µM MgSO4, 100 µM ZnSO4, 10 mM DTT, 37 °C
T1 construct: gene metE; tandem-repeat MetE, full length, 753 residues, 85 kDa, recombinant in E. coli DH10B (pBAD30_MetE), anion exchange; source strain of the gene not in main text (K-12 likely)
T1 sequence (P25665 2-753): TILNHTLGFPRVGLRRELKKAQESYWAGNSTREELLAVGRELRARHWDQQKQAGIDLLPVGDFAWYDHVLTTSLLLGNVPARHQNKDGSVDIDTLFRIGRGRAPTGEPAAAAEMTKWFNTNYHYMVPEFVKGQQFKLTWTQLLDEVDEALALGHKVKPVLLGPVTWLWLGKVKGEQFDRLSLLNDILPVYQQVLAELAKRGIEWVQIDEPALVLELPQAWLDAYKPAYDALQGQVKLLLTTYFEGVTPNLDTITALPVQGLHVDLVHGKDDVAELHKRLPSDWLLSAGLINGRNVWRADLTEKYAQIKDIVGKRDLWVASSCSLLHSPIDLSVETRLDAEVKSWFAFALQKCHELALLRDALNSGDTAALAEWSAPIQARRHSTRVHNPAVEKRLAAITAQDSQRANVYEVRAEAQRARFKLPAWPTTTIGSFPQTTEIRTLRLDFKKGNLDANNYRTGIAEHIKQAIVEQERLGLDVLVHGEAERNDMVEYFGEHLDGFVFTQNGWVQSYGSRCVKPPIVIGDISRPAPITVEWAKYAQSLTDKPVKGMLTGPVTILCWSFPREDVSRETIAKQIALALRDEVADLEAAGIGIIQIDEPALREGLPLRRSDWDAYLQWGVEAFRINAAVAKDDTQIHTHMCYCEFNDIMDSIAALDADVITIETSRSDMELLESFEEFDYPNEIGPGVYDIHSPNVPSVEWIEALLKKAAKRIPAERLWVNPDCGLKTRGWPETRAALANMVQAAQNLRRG

core-MetECBDB = biological target: T2, core-MetECBDB (Dehalococcoides mccartyi, UniProt A0A916P3S8); conditions: 2 mM D,L-homocysteine, 50 mM Tris/HCl pH 6.5, 150 mM NaCl, 10% glycerol, anoxic, 0.1 µM enzyme; Hill fit
T2 construct: gene cbdbA481

purified protein = substrate: NC(CCS)C(=O)O; assay: purified protein; conditions: 0.5 mM methylcob(III)alamin, 50 mM Tris/HCl pH 6.5, 150 mM NaCl, 10% glycerol, anoxic, 0.1 µM enzyme, racemate, enzyme taken as L-specific, Hill fit

## NC(CCS)C(=O)O (racemic) [D,L-homocysteine]
tr-MetEEco
  HPLC and MS of products: in the presence of tr-MetEEco, methionine was formed

## C.C/C1=C2/N[C@H]([C@H](CC(N)=O)[C@@]2(C)CCC(=O)NC[C@@H](C)OP(=O)(O)O[C@H]2[C@@H](O)[C@@H](n3cnc4cc(C)c(C)cc43)O[C@@H]2CO)[C@]2(C)N=C(/C(C)=C3N=C(/C=C4N=C1[C@@H](CCC(N)=O)C\4(C)C)[C@@H](CCC(N)=O)[C@]\3(C)CC(N)=O)[C@@H](CCC(N)=O)[C@]2(C)CC(N)=O.[Co] [MeCbl(III), methylcob(III)alamin]
core-MetECBDB
  Km: 236 ± 3 µM

B1: core-MetECBDB (Dehalococcoides mccartyi CBDB1) (protein)
chain: MTKTDFYFLPTMIGSMPHTDPKAAVDIITHYLRDIPVWPQLPRRSYLEGMSAQFSQGLPGVNINQDKMWIEPNSGFEGELESLYQAYLDNDFNKFPIGVEYAAGLYELASRSNLSPKLVKGHITGPLTYCMSIKDPSGKDILYDEVLSDAATKLLKLKASWQEHFLKKICRNTIIFVDEPAMSAYGSAYLPLSREQVTGMFEEVFSGISGLKGVHCCGNTDWSILMDTSVDIINFDTYSYADSLAIYTDALQAFIKRGGAVAWGIVPTDEKALKEETAASLKDRLEAAMSHFDSKGLPFAELARHSLITPACGLGLKSLDAAERAPELLAELSALLRRKHGTV
Purified protein
  Km: 98 ± 0 µM
  kcat: ~60 s⁻¹
